Results on 16 molecules are retold here after ChEMBL document CHEMBL5233269, “Anticancer potential of spirocompounds in medicinal chemistry: A pentennial expedition” (Eur J Med Chem, 2021).

Each structure is given as a SMILES string.

Data set [1] relates to L02. Briefly: Antiproliferative activity against human L02 cells by MTT assay. The data set is classed as functional, cell-based. (Tetrazolium assays rely on reduction of a dye to a coloured formazan, in cell work by metabolically active cells.)
Data set [2] concerns HepG2. The data set is described as follows: Antiproliferative activity against human HepG2 cells by MTT assay. The data set is classed as functional, cell-based.
The subject of data set [3] is HeLa. Briefly: Cytotoxicity against human HeLa cells incubated for 24 hrs by MTT assay. Type of data set: functional, cell-based.
In data set [4] the test system is HeLa. The data set is described as follows: Cytotoxicity against human HeLa cells incubated for 48 hrs by MTT assay. Type of data set: functional, cell-based.
A short description of data set [5]: Inhibition of cell proliferation in human MCF-10A cells at 50 uM by MTT colorimetric cell viability assay relative to control. The data set is classed as toxicity, cell-based.
The subject of data set [6] is MCF7. Briefly: Inhibition of cell proliferation in human MCF7 cells. Type of data set: functional, cell-based.
The subject of data set [7] is Ehrlich. The data set is described as follows: Antitumor activity against mouse Ehrlich ascites carcinoma xenografted in mouse model assessed tumor growth inhibition relative to control. The data set is classed as functional. On the set-up: scale not given: the % may be the effect or the level left.
In data set [8] the target is T1, Amine oxidase [flavin-containing] A (Rattus norvegicus, UniProt P21396).
T1 sequence (P21396 whole entry): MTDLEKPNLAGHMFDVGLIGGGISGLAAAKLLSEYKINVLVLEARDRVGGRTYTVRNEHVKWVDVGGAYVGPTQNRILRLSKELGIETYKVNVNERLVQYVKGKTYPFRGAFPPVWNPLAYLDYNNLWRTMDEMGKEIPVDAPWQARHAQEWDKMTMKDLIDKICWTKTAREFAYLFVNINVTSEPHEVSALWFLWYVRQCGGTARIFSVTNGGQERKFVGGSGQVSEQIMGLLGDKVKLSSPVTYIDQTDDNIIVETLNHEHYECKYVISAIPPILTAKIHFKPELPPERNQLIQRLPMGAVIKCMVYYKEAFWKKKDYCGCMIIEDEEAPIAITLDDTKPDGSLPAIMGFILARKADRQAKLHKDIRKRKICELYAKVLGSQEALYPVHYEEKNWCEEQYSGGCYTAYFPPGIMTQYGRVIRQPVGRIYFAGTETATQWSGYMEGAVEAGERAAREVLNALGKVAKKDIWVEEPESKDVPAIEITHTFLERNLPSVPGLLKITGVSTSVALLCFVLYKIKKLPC
Briefly: Inhibition of rat brain MAO-A relative to control. Type of data set: tissue-based.

Data set [9] concerns Sarcoma-180. Briefly: Antitumor activity against mouse Sarcoma-180 xenografted in mouse model assessed tumor growth inhibition relative to control. The data set is classed as functional. On the set-up: scale not given: the % may be the effect or the level left.
Data set [10] has as its system B16-F10. Briefly: Anticancer activity against mouse B16-F10 cells incubated for 48 hrs by MTT assay. The data set is classed as functional, cell-based. As to conditions: B16-F10, 48 h.
In data set [11] the test system is MCF7. Briefly: Anticancer activity against human MCF7 cells assessed as reduction in cell viability incubated for 48 hrs by MTT assay. The data set is classed as functional, cell-based. The settings on record: MCF7, 48 h.
The subject of data set [12] is A549. Briefly: Anticancer activity against human A549 cells assessed as reduction in cell viability incubated for 48 hrs by MTT assay. Type of data set: functional, cell-based. The settings on record: A549, 48 h.
Data set [13] relates to MCF7. The data set is described as follows: Anticancer activity against human MCF7 cells assessed as inhibition of cell growth by MTT assay. Type of data set: functional, cell-based.
The test system of data set [14] is A549. The data set is described as follows: Anticancer activity against human A549 cells assessed as inhibition of cell growth by MTT assay. The data set is classed as functional, cell-based.
Data set [15] relates to HeLa. The data set is described as follows: Anticancer activity against human HeLa cells assessed as inhibition of cell growth by MTT assay. Type of data set: functional, cell-based.
Data set [16] has as its system HT-29. The data set is described as follows: Antiproliferative activity against human HT-29 cells measured after 48 hrs by MTT assay. Type of data set: functional, cell-based. As to conditions: HT-29, 48 h.
The subject of data set [17] is A549. The data set is described as follows: Antiproliferative activity against human A549 cells measured after 48 hrs by MTT assay. Type of data set: functional, cell-based. The settings on record: A549, 48 h.
Data set [18] relates to HeLa. Briefly: Antiproliferative activity against human HeLa cells measured after 48 hrs by MTT assay. Type of data set: functional, cell-based.
The subject of data set [19] is SW480. Briefly: Antiproliferative activity against human SW480 cells measured after 48 hrs by MTT assay. The settings on record: SW480, 48 h. The data set is classed as functional, cell-based.
The test system of data set [20] is HL-60. The data set is described as follows: Antiproliferative activity against human HL-60 cells measured after 48 hrs by MTT assay. Type of data set: functional, cell-based. The settings on record: HL-60, 48 h.
The nature of data set [21]: Antiproliferative activity against human […] cells measured after 48 hrs by MTT assay. Type of data set: functional, cell-based.
Data set [22] relates to HepG2. The data set is described as follows: Antiproliferative activity against human HepG2 cells measured after 48 hrs by MTT assay. The data set is classed as functional, cell-based. The settings on record: HepG2, 48 h.
The test system of data set [23] is MCF7. The data set is described as follows: Antiproliferative activity against human MCF7 cells measured after 48 hrs by MTT assay. Type of data set: functional, cell-based. The settings on record: MCF7, 48 h.
The test system of data set [24] is HepG2. Briefly: Cytotoxicity against human HepG2 cells incubated overnight by MTT assay. Type of data set: functional, cell-based.
The test system of data set [25] is HCT-116. Briefly: Cytotoxicity against human HCT-116 cells incubated overnight by MTT assay. The data set is classed as functional, cell-based.
The subject of data set [26] is MCF7. The data set is described as follows: Anticancer activity against human MCF7 cells at 10 uM by MTT assay relative to control. Type of data set: functional.

For orientation: IC50 means the concentration that gives 50% inhibition. Regarding `O=C1C(=O)C2C(N=C3N=NNN3C23C(=O)Nc2c(Cl)cccc23)c2ccccc21` (configuration not stated), the IC50 was determined as 49.5 µM in [1] and 3.03 µM in [2].

As to `O=C(c1ccc(F)cc1)C1C(C(=O)c2ccc(F)cc2)C12C(=O)Nc1ccccc12` (configuration not stated), the IC50 was 11.2 µM in data set [3] and 6.25 µM in [4].

The term inhibition denotes the change of the read-out against control, counted positive when it falls. For orientation: EC50 means the concentration that produces a half-maximal response. In turn, `COc1cc(OC)c(C2NCCC23C(=O)Nc2ccccc23)cc1OC` (configuration not stated) returned an inhibition at 50 µM in data set [5] of 0.8%. The molecule further showed an EC50 in [6] of 4.01 µM.

Regarding `CCn1c(SCc2ccc(Cl)cc2)nc2c(c1=O)C1(CCCCC1)Cc1ccccc1-2`, the Activity in data set [7] is reported as 56%; in data set [9], 40%. Moreover, the “inhibition (INH)” value in data set [8] came to 50%.

Regarding `COC1=CC2(C=C(C(=O)NNc3ccc(F)c(F)c3)c3cc(OC)cc(OC)c32)C(OC)=CC1=O` (configuration not stated), the figures for the IC50 in [10], in [11] and in data set [12] were 20.9 µM, 15.6 µM and 20.4 µM, respectively.

`O=C1Nc2ccc(Br)cc2C12c1c(c3ccccc3oc1=O)N(c1ccc(N3CCOCC3)c(F)c1)c1c2c(=O)oc2ccccc12`: the values for the IC50 in [13], in data set [14] and in data set [15] were 9.56 µM, 22.2 µM and 18.1 µM, respectively.

Take `CC(=O)O[C@H]1CC[C@]2(C)C3CC[C@@]4(C)C(CC[C@H]4[C@H](C)CCCC(C)C)C3C[C@@]3(N=C4C=CC=CN4/C3=N\c3ccccc3)C2C1` (some centres not stated): the IC50 worked out at 5.04 µM in [16]; 5.39 µM in data set [17]; 3.56 µM in [18]; 5 µM in [19]; 4.46 µM in data set [20]; 5.35 µM in data set [21]. Further, the values for the IC50 in data set [22] and in [23] were 2.43 µM and 4.31 µM, respectively.

The molecule `O=C1Nc2ccccc2C12CCNC2c1ccccc1` (configuration not stated) had an inhibition at 50 µM in data set [5] of 0.08%. In data set [6], this molecule had an EC50 of 3.53 µM.

With `O=C1Nc2ccccc2C12CCNC2c1cccc(F)c1` (configuration not stated), testing at 50 µM in data set [5] gave an inhibition of 4.48%. The EC50 in data set [6] was 6 µM.

With `O=C(/C=C/c1ccc(Br)cc1)[C@H]1[C@H](c2ccc(Br)cc2)C2CSCN2[C@]12C(=O)Nc1ccccc12` (some centres not stated), the IC50 came out at 0.8 µM in data set [24] and 3 µM in [25].

Regarding `CCn1c(SCC(=O)Nc2cccc(C(F)(F)F)c2)nc2c(c1=O)C1(CCCCC1)Cc1ccccc1-2`, the figures for the Activity in [7] and in data set [9] were 70% and 42%, respectively. Moreover, the “inhibition (INH)” value in data set [8] is 15%.

For the molecule `O=C1C2=C(c3ccccc31)N(c1ccc(N3CCOCC3)c(F)c1)C1=C(C(=O)c3ccccc31)C21C(=O)Nc2ccccc21`, the IC50 in [13] amounted to 6.47 µM; in data set [14], 17.8 µM; in data set [15], 9.14 µM.

Take `Cc1cn(CN2C(=O)C3(c4ccccc42)C(C(=O)c2ccccc2)C3C(=O)c2ccc(Cl)cc2)nn1` (configuration not stated): the IC50 turned out to be 9.3 µM in [3] and 4.5 µM in [4].

For `COC1=CC2(C=C(C(=O)Oc3c(F)cc(F)cc3F)c3cc(OC)cc(OC)c32)C(OC)=CC1=O` (configuration not stated), the IC50 in data set [10] was determined as 9.63 µM; in data set [11], 12.3 µM; in data set [12] it was 10.4 µM.

`COC(=O)c1[nH]nc2c1C1(C(=O)N(C(C)=O)c3ccccc31)C(C#N)=C(N)O2` (configuration not stated): in data set [26], the inhibition at 10 µM was found to be 23.2%.

In turn, `CC(=O)N1C(=O)C2(C(C#N)=C(N)Oc3n[nH]c(C)c32)c2ccccc21` (configuration not stated) registered an inhibition at 10 µM in [26] of 26.5%.
